Results taken from publication PMC4187893, “Biochemical and Antiparasitic Properties of Inhibitors of the Plasmodium falciparum Calcium-Dependent Protein Kinase PfCDPK1” (Antimicrobial Agents and Chemotherapy, 2014).

Columns and labels:
P. falciparum 3D7 = experiment: FACS assay for parasite growth; conditions: read-out: Parasite growth inhibition EC50; FACS; mean (SD), n = 3
[1] = set-up: method as in PMID 24689770; conditions: cited from earlier work
P. berghei = tested on: P. berghei; set-up: method as in PMID 24689770; conditions: mice, 50 mg/kg po, groups of three mice; mean (SD); cited from earlier work
PvCDPK1 = PvCDPK1 (Plasmodium vivax, UniProt A5KBU9); experiment: Rh-ParM ADP sensor IC50 assay, PvCDPK1; conditions: read-out: IC50 PvCDPK1; Rh-ParM, absence of MTIP; mean (SD), n = 3
Chain of PvCDPK1 (A5KBU9 entry or part of it): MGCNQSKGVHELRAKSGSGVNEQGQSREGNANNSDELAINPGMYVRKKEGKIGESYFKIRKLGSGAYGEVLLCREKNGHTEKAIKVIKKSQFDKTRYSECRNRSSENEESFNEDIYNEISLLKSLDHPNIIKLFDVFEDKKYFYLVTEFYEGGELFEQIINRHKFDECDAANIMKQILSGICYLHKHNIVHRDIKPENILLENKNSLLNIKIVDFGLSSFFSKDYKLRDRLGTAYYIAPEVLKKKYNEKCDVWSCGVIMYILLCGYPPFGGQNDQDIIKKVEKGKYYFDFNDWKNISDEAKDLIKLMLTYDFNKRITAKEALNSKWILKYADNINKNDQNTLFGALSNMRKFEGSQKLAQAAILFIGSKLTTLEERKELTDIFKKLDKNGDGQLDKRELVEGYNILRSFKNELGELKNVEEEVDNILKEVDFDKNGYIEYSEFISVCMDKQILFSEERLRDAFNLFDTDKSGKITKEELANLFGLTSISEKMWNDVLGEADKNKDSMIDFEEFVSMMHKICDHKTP

PbCDPK1 = PbCDPK1 (Plasmodium berghei, UniProt A0A509AHB6); experiment: Rh-ParM ADP sensor IC50 assay, PbCDPK1; conditions: read-out: IC50 PbCDPK1; Rh-ParM, absence of MTIP; mean (SD), n = 3
Chain of PbCDPK1 (A0A509AHB6 whole entry): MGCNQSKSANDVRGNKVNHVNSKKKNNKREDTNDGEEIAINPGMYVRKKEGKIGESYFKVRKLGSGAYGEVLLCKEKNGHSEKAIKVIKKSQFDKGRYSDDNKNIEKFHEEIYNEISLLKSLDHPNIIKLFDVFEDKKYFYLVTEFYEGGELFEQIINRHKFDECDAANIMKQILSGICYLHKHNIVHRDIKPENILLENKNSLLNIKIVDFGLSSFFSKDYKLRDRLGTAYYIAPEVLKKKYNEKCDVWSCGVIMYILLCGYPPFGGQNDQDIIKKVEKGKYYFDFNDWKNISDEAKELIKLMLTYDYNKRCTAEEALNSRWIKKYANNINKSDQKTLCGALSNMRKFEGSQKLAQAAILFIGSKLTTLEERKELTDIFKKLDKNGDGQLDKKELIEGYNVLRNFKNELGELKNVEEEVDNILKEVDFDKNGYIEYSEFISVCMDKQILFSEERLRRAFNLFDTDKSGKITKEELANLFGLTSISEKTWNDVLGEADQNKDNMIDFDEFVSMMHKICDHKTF

PfCDPK1 = PfCDPK1 (Plasmodium falciparum, UniProt P62344); experiment: Thermal shift assay; type: binding; set-up: 50 nM full-length recombinant PfCDPK1 and 8 μM MTIP in assay buffer 1; GST (from vector pGEX6P1) (N, cleaved yes); made in house; host or cells: Escherichia coli BL21 Gold; conditions: 10 μM compound, relative to DMSO controls
Chain of PfCDPK1 (P62344 whole entry): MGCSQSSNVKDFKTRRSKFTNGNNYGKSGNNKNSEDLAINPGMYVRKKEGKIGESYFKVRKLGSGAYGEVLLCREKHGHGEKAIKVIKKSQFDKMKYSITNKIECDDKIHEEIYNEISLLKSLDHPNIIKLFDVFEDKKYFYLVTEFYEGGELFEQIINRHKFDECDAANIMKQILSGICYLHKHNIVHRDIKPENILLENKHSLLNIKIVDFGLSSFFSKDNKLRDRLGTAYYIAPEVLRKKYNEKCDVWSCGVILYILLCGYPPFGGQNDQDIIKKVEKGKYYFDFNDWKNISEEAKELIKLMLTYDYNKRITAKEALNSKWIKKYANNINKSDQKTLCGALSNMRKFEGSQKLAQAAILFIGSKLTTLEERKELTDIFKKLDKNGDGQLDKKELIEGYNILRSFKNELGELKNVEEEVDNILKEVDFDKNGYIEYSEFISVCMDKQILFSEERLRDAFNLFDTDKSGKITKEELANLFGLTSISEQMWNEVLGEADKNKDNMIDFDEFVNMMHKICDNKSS
Protocol: Purified recombinant PfCDPK1 was diluted to 1 μM in 10 mM HEPES buffer (pH 7.5) containing 150 mM NaCl, 1 mM Ca^2+, and 1/1,000 SYPRO orange dye (Invitrogen). Test compounds were prediluted to 400 μM in 40% (vol/vol) DMSO in water, and 1 μl of diluted compound was added to 39 μl of enzyme/dye mix in white 96-well quantitative PCR plates (Thermo Scientific) to give a final compound concentration of 10 μM. Reference thermal melting temperatures (Tms) were obtained in parallel by the addition of 1 μl of 40% (vol/vol) DMSO to 39 μl of diluted PfCDPK1. The plates were sealed with transparent adhesive covers (Bio-Rad) and subjected to a temperature gradient from […] at a rate of 1 K/min using a quantitative PCR machine (MX3005P; Stratagene). Fluorescence data were acquired at 1-min intervals using the 6-carboxyfluorescein (FAM)/5-carboxy-X-rhodamine (ROX) filter set (λex = 492 nm; λem = 610 nm), and the raw data were exported to Excel (Microsoft) for analysis. Data were processed to identify the fluorescence maxima and minima, and the midpoints of melting curves were determined by fitting to the Boltzmann equation using XL-fit software (IDBS). Results were expressed as ΔTm values relative to DMSO controls where ΔTm = Tm in the presence of inhibitor − Tm of the DMSO controls.

[2] = set-up: method as in PMID 24689770; conditions: cited from earlier work; remark: listed apart in the source

For `CC(C)CCNc1ccc(-c2cnc3ccc(NC4CCN(C)CC4)nn23)cn1` [Compound 1], the EC50 (P. falciparum 3D7) is given as 439 nM, the mlogD [1] is given as 3.4 and the “% reduction in parasitemia in vivo (po)” value (P. berghei) is given as 46 (4) %. It also gave an IC50 (PvCDPK1) of under 10 nM.
In the case of `Cc1ccc(F)c(Nc2ccc(-c3cnc4ccc(NC5CCC(N)CC5)nn34)cc2)n1` (stereo not drawn) [Compound 7], the IC50 (PbCDPK1) is given as under 10 nM, the “ΔTm PfCDPK1” value (PfCDPK1) is given as 23 K and the “PAMPA Papp” value [2] is given as 1.8 ×10⁻⁶ cm/s. For the same compound, the mlogD [1] was 2.2 and the IC50 (PvCDPK1) was under 10 nM.
